According to publication PMC8074287, “Analgesic and Anticancer Activity of Benzoxazole Clubbed 2-Pyrrolidinones as Novel Inhibitors of Monoacylglycerol Lipase” (Molecules, 2021):

Tests used:
Assay in all cases: NCI60 single-dose SRB assay
Type in all cases: cell-based, human
NCI-H322M = settings: Non-Small Cell Lung Cancer, 10 μM
Method: (§1) Compounds 19 and 20 were supplied to National Cancer Institute (USA), for sulforhodamine B (SRB) assay and anticancer screening. Single-dose (10 µM) assay results for compounds 19 and 20 were provided as a mean of percent growth (% G) and growth inhibition (% GI) against 60 cell lines of nine types of cancers and are tabulated in Table 4. […] Both the compounds 19 and 20 were also found active on UO-31 renal cancer cell line with % GI of 21.18 and 29.95, respectively.
(§2) Compounds 19 and 20 were supplied to National Cancer Institute (Bethesda, Maryland, USA), for in vitro sulforhodamine B (SRB) assay, anticancer screening on 60 cell lines of cancers of leukemia, melanoma, and tumors of the kidney, brain, breast, lung, colon, ovary, and prostate, as per their standard protocol. One dose anticancer results (NCI, USA) of compounds 19 and 20 are provided in the Supplementary Materials.

SNB-75 = settings: SNB-75, CNS Cancer, 10 μM
Method: as §1, §2

SN12C = settings: Renal Cancer, 10 μM
Method: as §1, §2

IGROV1 = settings: IGROV1, Ovarian Cancer, 10 μM
Method: as §1, §2

HCC-2998 = settings: HCC-2998, Colon Cancer, 10 μM
Method: as §1, §2

T-47D = settings: Breast Cancer, 10 μM
Method: as §1, §2

SF-539 = settings: SF-539, CNS Cancer, 10 μM
Method: as §1, §2

786-0 = settings: 786-0, Renal Cancer, 10 μM
Method: as §1, §2

UACC-62 = settings: UACC-62, Melanoma, 10 μM
Method: as §1, §2

OVCAR-5 = settings: OVCAR-5, Ovarian Cancer, 10 μM
Method: as §1, §2

SK-MEL-28 = settings: SK-MEL-28, Melanoma, 10 μM
Method: as §1, §2

HT29 = settings: HT29, Colon Cancer, 10 μM
Method: as §1, §2

SK-MEL-5 = settings: SK-MEL-5, Melanoma, 10 μM
Method: as §1, §2

NCI-H23 = settings: NCI-H23, Non-Small Cell Lung Cancer, 10 μM
Method: as §1, §2

SR = settings: Leukemia, 10 μM
Method: as §1, §2

SK-MEL-2 = settings: SK-MEL-2, Melanoma, 10 μM
Method: as §1, §2

NCI-H226 = settings: NCI-H226, Non-Small Cell Lung Cancer, 10 μM
Method: as §1, §2

MDA-MB-435 = settings: MDA-MB-435, Melanoma, 10 μM
Method: as §1, §2

HCT-15 = settings: HCT-15, Colon Cancer, 10 μM
Method: as §1, §2

NCI/ADR-RES = settings: Ovarian Cancer, 10 μM
Method: as §1, §2

PC-3 = settings: PC-3, Prostate Cancer, 10 μM
Method: as §1, §2

M14 = settings: M14, Melanoma, 10 μM
Method: as §1, §2

OVCAR-4 = settings: OVCAR-4, Ovarian Cancer, 10 μM
Method: as §1, §2

MOLT-4 = settings: MOLT-4, Leukemia, 10 μM
Method: as §1, §2

HOP-92 = settings: HOP-92, Non-Small Cell Lung Cancer, 10 μM
Method: as §1, §2

MDA-MB-231/ATCC = settings: Breast Cancer, 10 μM
Method: as §1, §2

SK-OV-3 = settings: SK-OV-3, Ovarian Cancer, 10 μM
Method: as §1, §2

SF-295 = settings: SF-295, CNS Cancer, 10 μM
Method: as §1, §2

HS 578T = settings: Breast Cancer, 10 μM
Method: as §1, §2

`NS(=O)(=O)c1ccc(N2CC(c3nc4ccccc4o3)CC2=O)cc1` (stereo not drawn) [Compound 20, 4-(4-(Benzo[d]oxazol-2-yl)-2-oxopyrrolidin-1-yl)benzenesulfonamide] was tested, and the “% G” value (NCI-H322M) was 99.10%, the “% GI” value (NCI-H322M) was 0.90% and the “% G” value (SNB-75) was 68.12%. The “% GI” value (SNB-75) was 31.88%, the “% G” value (SN12C) was 95.50% and the “% GI” value (SN12C) was 4.50%. For the same molecule, the “% G” value (IGROV1) was 101.63%, the “% GI” value (IGROV1) was −1.63% and the “% G” value (HCC-2998) was 100.24%. For the same molecule, the “% GI” value (HCC-2998) was −0.24%, the “% G” value (T-47D) was 83.24% and the “% G” value (SF-539) was 87.58%. For the same molecule, the “% GI” value (SF-539) was 12.42%, the “% G” value (786-0) was 98.99% and the “% GI” value (786-0) was 1.01%. The “% G” value (UACC-62) was 92.78%, the “% GI” value (UACC-62) was 7.22% and the “% G” value (OVCAR-5) was 92.08%. The “% GI” value (OVCAR-5) was 7.92%, the “% G” value (SK-MEL-28) was 101.79% and the “% GI” value (SK-MEL-28) was −1.79%. The “% G” value (HT29) was 103.23%, the “% GI” value (HT29) was −3.23% and the “% G” value (SK-MEL-5) was 98.82%. For the same molecule, the “% G” value (NCI-H23) was 92.19%, the “% GI” value (NCI-H23) was 7.81% and the “% G” value (SR) was 93.20%. The “% GI” value (SR) was 6.80%, the “% G” value (SK-MEL-2) was 111.54% and the “% GI” value (SK-MEL-2) was −11.54%. For the same molecule, the “% G” value (NCI-H226) was 92.75%, the “% GI” value (NCI-H226) was 7.25% and the “% G” value (MDA-MB-435) was 100.55%. The “% GI” value (MDA-MB-435) was −0.55%, the “% G” value (HCT-15) was 101.16% and the “% GI” value (HCT-15) was −1.16%. The “% G” value (NCI/ADR-RES) was 101.45%, the “% GI” value (NCI/ADR-RES) was −1.45% and the “% G” value (PC-3) was 88.11%. For the same molecule, the “% GI” value (PC-3) was 11.89%, the “% G” value (M14) was 98.58% and the “% GI” value (M14) was 1.42%. The “% G” value (OVCAR-4) was 99.47%, the “% GI” value (OVCAR-4) was 0.53% and the “% G” value (MOLT-4) was 92.47%. The “% GI” value (MOLT-4) was 7.53%, the “% G” value (HOP-92) was 77.78% and the “% GI” value (HOP-92) was 22.22%. The “% G” value (MDA-MB-231/ATCC) was 80.11%, the “% GI” value (MDA-MB-231/ATCC) was 19.89% and the “% G” value (SK-OV-3) was 94.77%. The “% GI” value (SK-OV-3) was 5.23%, the “% G” value (SF-295) was 93.71% and the “% GI” value (SF-295) was 6.29%. The “% G” value (HS 578T) was 104.19% and the “% GI” value (HS 578T) was −4.19%.
In the case of `O=C1CC(c2nc3ccccc3o2)CN1c1ccc([N+](=O)[O-])cc1` (stereo not drawn) [Compound 19, 4-(Benzo[d]oxazol-2-yl)-1-(4-nitrophenyl)pyrrolidin-2-one], the “% G” value (NCI-H322M) is reported as 94.18%, the “% GI” value (NCI-H322M) is reported as 5.82% and the “% G” value (SNB-75) is reported as 64.51%. For the same molecule, the “% GI” value (SNB-75) was 35.49%, the “% G” value (SN12C) was 97.21% and the “% GI” value (SN12C) was 2.79%. For the same molecule, the “% G” value (IGROV1) was 104.14%, the “% GI” value (IGROV1) was −4.14% and the “% G” value (HCC-2998) was 102.05%. The “% GI” value (HCC-2998) was −2.05%, the “% G” value (T-47D) was 80.01% and the “% GI” value (T-47D) was 19.99%. The “% G” value (SF-539) was 95.59%, the “% GI” value (SF-539) was 4.41% and the “% G” value (786-0) was 104.06%. The “% GI” value (786-0) was −4.06%, the “% G” value (UACC-62) was 97.59% and the “% GI” value (UACC-62) was 2.41%. The “% G” value (OVCAR-5) was 98.30%, the “% GI” value (OVCAR-5) was 1.70% and the “% G” value (SK-MEL-28) was 111.25%. The “% GI” value (SK-MEL-28) was −11.25%, the “% G” value (HT29) was 99.25% and the “% GI” value (HT29) was 0.75%. The “% G” value (SK-MEL-5) was 98.72%, the “% GI” value (SK-MEL-5) was 1.28% and the “% G” value (NCI-H23) was 93.07%. The “% GI” value (NCI-H23) was 6.93%, the “% G” value (SR) was 88.92% and the “% GI” value (SR) was 11.08%. The “% G” value (SK-MEL-2) was 102.31%, the “% GI” value (SK-MEL-2) was −2.31% and the “% G” value (NCI-H226) was 98.63%. For the same molecule, the “% GI” value (NCI-H226) was 1.37%, the “% G” value (MDA-MB-435) was 95.05% and the “% GI” value (MDA-MB-435) was 4.95%. For the same molecule, the “% G” value (HCT-15) was 98.10%, the “% GI” value (HCT-15) was 1.9% and the “% G” value (NCI/ADR-RES) was 98.37%. For the same molecule, the “% GI” value (NCI/ADR-RES) was 1.63%, the “% G” value (PC-3) was 91.14% and the “% GI” value (PC-3) was 8.86%. The “% G” value (M14) was 101.37%, the “% GI” value (M14) was −1.37% and the “% G” value (OVCAR-4) was 106.27%. For the same molecule, the “% GI” value (OVCAR-4) was −6.27%, the “% G” value (MOLT-4) was 93.64% and the “% GI” value (MOLT-4) was 6.36%. For the same molecule, the “% G” value (HOP-92) was 104.72%, the “% GI” value (HOP-92) was −4.72% and the “% G” value (MDA-MB-231/ATCC) was 88.41%. The “% GI” value (MDA-MB-231/ATCC) was 11.59%, the “% G” value (SK-OV-3) was 88.34% and the “% GI” value (SK-OV-3) was 11.66%. For the same molecule, the “% G” value (SF-295) was 98.21%, the “% GI” value (SF-295) was 1.79% and the “% G” value (HS 578T) was 101.81%. The “% GI” value (HS 578T) was −1.81%.
